Laboratory results taken from US6686181B1, “Method for the production of L-amino acids from their racemic N-aceytyl-D, L-derivatives by enzymatic racemate cleavage by means of isolated recombinant enzymes” (Aventis Corporation GmbH, priority 1999, dated 2004).

Tested on: deac1 protein
Assay: Substrate specificity and stereoselectivity of the purified deac1 enzyme (free amino acid formed, amino acid analyzer)
Format: biochemical, Stenotrophomonas sp.
Conditions: 5 μg purified enzyme, 25 mM substrate, pH 7.5, 37° C., 1 h; specific activity with hippuric acid set equal to 100%
Protocol: For the investigation of substrate specificity and stereospecificity of the deac1 protein, 5 μg each of purified enzyme were incubated in 20 μl batches in 10 mM NaCl, 10 mM Na phosphate, pH=7.5 with 25 mM each of the N-acetyl-L-amino acids or of the corresponding D enantiomers mentioned in Table 1. For comparison, hippuric acid (N-benzoylglycine), the natural substrate of deacetylase, was employed. […] Table 1 indicates the relative deacetylase activities for the L-enantiomers of the various substrates.

| Compound | Rel. activity [%] |
| --- | --- |
| CC(=O)N[C@@H](CO)C(=O)O [N-Ac-L-serine] | 4 |
| CC(=O)N[C@@H](Cc1c[nH]c2ccccc12)C(=O)O [N-Ac-L-tryptophan] | 0.4 |
| CC(=O)N1CCC[C@H]1C(=O)O [N-Ac-L-proline] | 0 |
| CC(=O)N[C@@H](Cc1ccccc1)C(=O)O [N-Ac-L-phenylalanine] | 24 |
| CSCC[C@H](NC(C)=O)C(=O)O [N-Ac-L-methionine] | 0 |

Same assay, conditions: 25 mM substrate, 37° C., 1 h

| Compound | cleavage of substrate by the deac1 enzyme (in words) |
| --- | --- |
| CC(=O)N[C@@H](CC(C)C)C(=O)O [N-Ac-L-leucine] | cleaves |
| CC(=O)NCC(=O)O [N-Ac-glycine] | cleaves |
| CC(=O)N[C@@H](CCC(=O)O)C(=O)O [N-Ac-L-glutamic acid] | cleaves |
| CC(=O)N[C@@H](CCP(C)(=O)O)C(=O)O [N-Ac-L-phosphinothricin] | cleaves |
| CC(=O)N[C@@H](CCC(N)=O)C(=O)O [N-Ac-L-glutamine] | cleaves |
| O=C(O)CNC(=O)c1ccccc1 [Hippuric acid (N-benzoylglycine), N-benzoylglycine, reference compound] | cleaves |
| CC(=O)N[C@@H](Cc1c[nH]cn1)C(=O)O [N-Ac-L-histidine] | cleaves |
| CC(=O)N[C@@H](Cc1ccccc1)C(=O)O [N-Ac-L-phenylalanine] | cleaves |
| CC(=O)N[C@@H](CCCN)C(=O)O [N-Ac-L-ornithine] | cleaves |
